# How the values were obtained:
# YG8R mouse = conditions: cited from earlier work
# [1] = pH = 2 and 50 °C; cited from earlier work
# [2] = system: global acetylation of histone H3; conditions: Friedreich ataxia lymphoblast cell line; cited from earlier work
# FXN messenger RNA [3] = conditions: cited from earlier work; for effects on FXN messenger RNA levels: Friedreich ataxia cells
# frataxin protein = conditions: Friedreich ataxia lymphoblast cell line; cited from earlier work
# [4] = system: histones H3 and H4 within intron 1 of FXN; conditions: chromatin immunoprecipitation; cited from earlier work
# [5] = system: class I histone deacetylase enzymes; conditions: 106: histone deacetylase enzymes 1 and 3; cited from earlier work
# FXN messenger RNA [6] = assay: FXN messenger RNA by qRT-PCR in Friedreich ataxia lymphoid cells; format: cell-based, human; conditions: 10 μM compound, qRT-PCR of FXN messenger RNA
# class II HDACs = conditions: panel of recombinant human enzymes expressed in baculovirus; cited from earlier work
# [7] = system: histone deacetylase enzyme 8; conditions: relative to histone deacetylase enzymes 1 and 3; cited from earlier work
# [8] = system: histone deacetylase enzyme 2; conditions: relative to histone deacetylase enzymes 1 and 3; cited from earlier work
# [9] = system: KIKI (FXN 230GAA/230GAA) mouse; conditions: KIKI mice; cited from earlier work
# FXN messenger RNA [10] = assay: FXN messenger RNA by qRT-PCR in peripheral blood mononuclear cells; format: cell-based, human; conditions: 10 μM, 48 hours
# HDAC3 = conditions: recombinant enzymes; cited from earlier work
compound,measurement,setting,value
Cc1ccc(C(=O)NCCCCCC(=O)Nc2ccccc2N)cc1 [compound 109],toxicity during 5 months of treatment,YG8R mouse,no overt toxicity
same,t1/2 in acidic conditions,[1],6 h
O=C(CCCCCCC(=O)Nc1ccccc1)NO [suberoylanilide hydroxamic acid],acetylated histones after washing cells free of the compounds,[2],rapidly lost
same,effects on FXN messenger RNA levels,FXN messenger RNA [3],no effects
same,activator of FXN transcription in Friedreich ataxia cells,FXN messenger RNA [3]; at subcytotoxic concentrations,inactive
same,induction of frataxin protein,frataxin protein,no such activity
same,"histone acetylation on FXN (H3-K14, H4-K5, H4-K12 within intron 1)",[4],no effect
Nc1ccccc1NC(=O)CCCCCCC(=O)Nc1ccccc1 [BML-210],repression of FXN in lymphoid cell lines derived from patients with Friedreich ataxia,FXN messenger RNA [3],relieve repression
CC(/C=C/C(=O)NO)=C\[C@@H](C)C(=O)c1ccc(N(C)C)cc1 [trichostatin A],mechanism of inhibition,[5],"rapid-on/rapid-off, classical competitive inhibitors"
same,effects on FXN messenger RNA levels,FXN messenger RNA [3],no effects
same,"histone acetylation on FXN (H3-K14, H4-K5, H4-K12 within intron 1)",[4],no effect
Cc1ccc(NC(=O)CCCCCC(=O)Nc2ccccc2N)cc1 [compound 106],FXN transcription,FXN messenger RNA [6],Highly active
same,activity against class II histone deacetylases,class II HDACs,little or no activity
same,mechanism of inhibition,[5],slow-on/slow-off
same,acetylated histones after washing cells free of the compounds,[2],persists for several hours
same,activity against histone deacetylase enzyme 8,[7],much lower activity
same,activity against histone deacetylase enzyme 2,[8],much lower activity
same,frataxin levels in the nervous system and heart,[9],restored
same,histone H3 and H4 acetylation in chromatin near the GAA•TTC repeat,[9],increased
same,"FXN messenger RNA, cells from patients with Friedreich ataxia",FXN messenger RNA [10]; peripheral blood mononuclear cells from affected individuals,significant increases
same,"FXN messenger RNA, wild-type alleles in cells from unaffected individuals",FXN messenger RNA [10]; peripheral blood mononuclear cells from unaffected individuals,only a very small effect
same,preference for histone deacetylase enzyme 3 over histone deacetylase enzyme 1,HDAC3,~10 fold
same,induction of frataxin protein,frataxin protein,potent inducer
same,global histone H3 and H4 acetylation of brain tissue,YG8R mouse,increased
same,toxicity during 5 months of treatment,YG8R mouse,no overt toxicity
same,motor coordination,YG8R mouse; long-term treatment,improvement
Nc1ccccc1NC(=O)CCCCCC(=O)Nc1ccccc1 [4b],"histone acetylation on FXN (H3-K14, H4-K5, H4-K12 within intron 1)",[4],increases acetylation
